# Test results as given in publication PMC9908026 (Science Advances, 2023).
# Target: T1, EcGlyRS ((αβ)2 orphan GlyRS, full-length; EcGlyRS_FL) (Escherichia coli, UniProt P00960)
# T1 construct: gene glyQ; full-length α and β subunits co-expressed in E. coli BL21(DE3); C-terminal His6 tag on β, no cleavage told; (αβ)2 heterotetramer; with Glycine--tRNA ligase beta subunit
# T1 sequence (P00960 1-303): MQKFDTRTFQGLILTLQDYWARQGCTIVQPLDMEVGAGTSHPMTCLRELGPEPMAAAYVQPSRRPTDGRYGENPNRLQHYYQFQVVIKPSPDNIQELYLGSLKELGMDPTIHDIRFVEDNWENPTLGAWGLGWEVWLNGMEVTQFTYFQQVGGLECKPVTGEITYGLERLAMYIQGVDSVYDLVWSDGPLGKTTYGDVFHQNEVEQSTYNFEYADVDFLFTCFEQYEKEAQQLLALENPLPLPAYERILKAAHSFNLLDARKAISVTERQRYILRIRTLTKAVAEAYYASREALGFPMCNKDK
# T1 sequence (P00961 2-689 partner): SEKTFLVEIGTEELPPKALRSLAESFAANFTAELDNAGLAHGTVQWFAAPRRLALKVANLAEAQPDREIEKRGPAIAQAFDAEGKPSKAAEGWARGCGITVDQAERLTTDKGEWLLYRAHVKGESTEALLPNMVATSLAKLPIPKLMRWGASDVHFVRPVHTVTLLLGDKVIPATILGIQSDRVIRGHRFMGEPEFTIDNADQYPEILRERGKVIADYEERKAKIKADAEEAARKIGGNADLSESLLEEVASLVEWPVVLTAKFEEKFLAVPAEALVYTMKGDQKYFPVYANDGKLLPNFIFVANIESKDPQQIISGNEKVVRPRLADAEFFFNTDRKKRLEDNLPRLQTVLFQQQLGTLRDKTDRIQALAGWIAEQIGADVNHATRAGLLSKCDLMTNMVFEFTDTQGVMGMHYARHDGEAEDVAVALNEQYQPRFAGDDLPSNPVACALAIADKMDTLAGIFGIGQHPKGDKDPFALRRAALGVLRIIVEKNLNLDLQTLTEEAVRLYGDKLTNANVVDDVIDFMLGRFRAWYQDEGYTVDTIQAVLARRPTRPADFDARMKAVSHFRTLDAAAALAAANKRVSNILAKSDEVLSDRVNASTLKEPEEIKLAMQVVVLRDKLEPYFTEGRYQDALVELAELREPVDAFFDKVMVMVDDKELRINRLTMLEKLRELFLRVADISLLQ
# Assay: ATP consumption assay (Kinase-Glo luminescence)
# Type: biochemical
# Conditions: 4 μM ATP, 500 μM glycine, tRNA-Gly(GCC) 0.25 mg/ml, 40 mM MgCl2, pH 7.5, room temperature; 50 nM enzyme
smiles,measurement,value
Nc1ncnc2c1ncn2[C@@H]1O[C@H](COP(=O)(O)OP(=O)(O)OP(=O)(O)O)[C@@H](O)[C@H]1O [ATP],ATP consumption assay (Kinase-Glo luminescence),An ATP consumption assay was used to evaluate the aminoacylation activity of EcGlyRS on tRNA^Gly
